Source: US20120316241A1, “REMEDY FOR CARTILAGE-RELATED DISEASES” (ONO PHARMACEUTICAL CO., LTD., priority 2003, published 2012)

Legend:
[1] = test system: femoral condyle articular cartilage; assay: cartilage deficiency model, femoral condyle articular cartilage organ culture; design: species or system rat
Method: (§1) The cartilage deficiency model was prepared from a femoral condyle articular cartilage collected from a rat of 5 weeks of age, by cutting the cartilage layer alone such that damage is not given to the subchondral bone. The femur was soaked in the DMEM/Ham's F12 medium (contains 5 μM indometacin) and cultured for 21 days in the presence (treated group) or absence (control group) of the selective EP agonist described in Example 2 (10 μM or 1 μM). Area of the newly formed cartilage tissue was measured using Image-Pro Plus software (mfd. by Planetron) and calculated as an area ratio with the untreated lateral joint face.
(§2) The formalin-fixed sections were prepared on the 0th day, 7th day, 14th day and 21st day starting from the commencement of tissue culturing described in Example 8. Each section was decalcified with EDTA (10% w/v) for 7 days and then sliced into a section of 4 μm in thickness. The hematoxylin-eosin staining and alcian blue staining were carried out by the aforementioned method.

[2] = test system: human primary-cultured chondrocyte; assay: cell growth activity, BrdU incorporation assay; format: cell-based; conditions: 1 μM overnight, then 8 hours with BrdU; normal cartilage and RA articular cartilage derived cells
Method: Human primary-cultured chondrocytes were isolated from knee articular cartilages of three patients who underwent above-knee amputation due to femur osteosarcoma. In addition, other human primary-cultured chondrocytes were obtained from rheumatic arthritis patients who underwent artificial hip joint replacement. Isolation operation of these cells was also carried out by the method described in the above.
The cell growth activity was measured by a BrdU incorporation assay using BrU labeling, detection kit (mfd. by Boehringer Mannheim GmbH).
Culturing of each chondrocyte was started at a cell density of 2×10^3 cells/96 well culture dish, and after adhesion of the cells, the selective EP agonist described in Example 2 (1 μM) was added thereto to start the culturing at 37° C. overnight. Subsequently, the culturing was continued for 8 hours together with BrdU (final concentration 110 μM), and the labeled nucleus was detected by the method of the instructions attached to the kit.

[3] = test system: rat femur head articular cartilage; assay: PCNA immunohistological staining of organ-cultured articular cartilage; conditions: 1 μM, after 7 days of organ culture
Method: as §1, §2
Regarding the PCNA immuno histological staining, the prepared slide was treated with 3% hydrogen peroxide and then subjected to a blocking treatment using a blocking solution (mfd. by Dako Cytomation). […] After washing, the reaction with a substrate, 3,3′-diaminobenzidine tetrahydrochloride (mfd. by Dako Cytomation), was detected. […]

chondrocyte strain = assay: gene expression profile by cDNA microarray, reconfirmed by RT-PCR; format: cell-based, mouse; conditions: 1 μM, 72 hours, medium with 5 μM indometacin
Method: Culturing of each chondrocyte was started at a cell density of 3×10^5 cells/100 mm culture dish, and 2 days and 21 days thereafter, respective total RNA samples were prepared using Trizol Reagent (mfd. by Life Technologies) in accordance with the instructions attached thereto. The RT reaction was carried out in accordance with the instructions attached to RT-PCR kit (mfd. by Life Technologies) using 1 μg of the thus prepared total RNA. The PCR reaction was carried out in 25 μl of a reaction liquid (20 μmol sense primer, 20 μmol antisense primer, 25 mM MgCl2, 0.2 mM dNTP, 1 unit γTaq polymerase (mfd. by TOYOBO., LTD.)) containing 1 μl of the RT reaction liquid. The PCR reaction (in the reaction, starting reaction was carried out at 94° C. for 5 minutes, and then the following reaction (denaturation reaction at 94° C. for 1 minute, annealing reaction at 72° C. for 1 minute and elongation reaction at 72° C. for 7 minutes) was carried out 35 times) was carried out using Gene Amp 9700 (mfd. by PE Applied Biosystem). Sequences of the primers used in the above RT-PCR are shown in the following.
Gene expression profile of chondrocytes was analyzed by a custom-made cDNA microarray system. This system was prepared by spotting 78 species of bone- and cartilage-related mouse genes and 900 species of mouse genes (InteliGene CHIP ver. 1) (mfd. by Takara Bio INC.) on a glass slide.
A chondrocyte was cultured for 72 hours in DMEM/F12 medium (contains 5 μM indometacin) in the presence or absence of each of the selective EP agonists shown in Example 2 (1 μM), and respective total RNA samples were extracted. A fluorescent cDNA probe was synthesized using 20 μg of each of the total RNA samples as the template, and using 400 U of M-MLV reverse transcriptase and Cy3 or Cy5-dUTP (Amersham Biosciences).
Each cDNA probe dissolved in a reaction buffer (6×SSC/0.2% SDS, 5×Denhardt's solution, 0.1 mg/ml denatured salmon sperm DNA) was allowed to hybridize with the spots on the glass slide at 65° C. overnight. The slide was washed with a washing liquid (2×SSC/0.2% SDS) twice at 55° C. for 5 minutes and then once at 65° C. for 5 minutes, and finally washed with 0.05×SSC solution at room temperature for 1 minute. The hybridization signal was visualized by Affymetrix 418 Array Scanner (mfd. by Affymetrix), and analyzed by ImaGene software (mfd. by BioDiscovery). Regarding the expressed genes in which changes were confirmed, reconfirmation was carried out by the RT-PCR method.

MMA2 chondrocyte strain = assay: intracellular cAMP concentration (cAMP assay kit); format: cell-based, mouse; conditions: 12 hours with agonist
Method: Cartilage tissues of a femur and the shinbone collected from a p53 defective mouse of 4 weeks of age (Tukada, T., Oncogene, 1992, vol. 8, pp. 3313-3322) were cut into pieces, treated with 0.1% collagenase and then cultured (culture conditions; 5% CO2, 37° C., under humidification, hereinafter, this was carried out under the same conditions) using DMEM/Ham's F12 (1:1) medium (contains 10% fetal bovine serum (FBS) and antibiotics (to be referred to as DMEM/Ham's F12 medium hereinafter)). By carrying out dilution sub-culturing from the cell group under a 80 to 90% confluent state, a chondrocyte strain MMA2 recognized by an international deposition number FERM BP-10029 was isolated. […]
Culturing of each chondrocyte was started at a cell density of 1×10^4 cells/24 well culture dish, and 2 hours thereafter, each of the selective EP agonists shown in Example 2 was added thereto to continue the culturing for additional 12 hours. The intracellular cAMP concentration was measured using a cAMP assay kit (Cayman Chemical Company) and in accordance with the instructions attached to the kit, using, as a sample, lysed supernatant of the cell prepared by lysing the same with a cell lysis liquid (0.1 mM Tris/HCl buffer, pH 7.2).

Row | SMILES | ratio of the regenerated tissue (area ratio with the untreated lateral joint face) ([1]; 1 μM or 10 μM, cultured for 21 days) | tissue regeneration image (hematoxylin-eosin, alcian blue staining) ([1]; treated group against control group, 21 days) | DNA synthesis (BrdU incorporation) [2] | PCNA staining affinity [3] | expression of fibronectin, integrin, cyclin D1, MAZ, AP2α and 14-3-3γ genes (chondrocyte strain) | expression of osteopontin and MGP genes (chondrocyte strain) | intracellular cAMP (MMA2 chondrocyte strain)
1 | C=CCC1(C(O)C/C=C/[C@@H]2[C@@H](C/C=C\CCCC(=O)O)[C@H](Cl)C[C@H]2O)CCC1 (stereo partly drawn) [EP2 agonist, (5Z,9β,11α,13E)-17,17-propano-11,16-dihydroxy-9-chloroprostar-5,13,19-trienoic acid] | increased periodically and concentration-dependently | a regeneration image having a staining affinity of similar to that of a remaining existing cartilage (right side) was observed | DNA synthesis accelerating effect | distinctively increased | stimulated | reduced | increased concentration-dependently
2 | CCCCC[C@@H](/C=C/[C@H]1[C@H](OC)CC(=O)[C@@H]1C/C=C\CCCC(=O)O)OC [EP3 agonist, 11α,15α-dimethoxy-9-oxoprosta-5Z,13E-dienoic acid] |  |  |  | distinctively increased | stimulated | reduced | 
